According to PMC5447021, “TNF Lectin-Like Domain Restores Epithelial Sodium Channel Function in Frameshift Mutants Associated with Pseudohypoaldosteronism Type 1B” (Frontiers in Immunology, 2017):
Entries after “also recorded” stand apart in the source; their conditions may differ. Marks after values point to notes of the source that are not given here.

Experiments:
αL576Xβγ-ENaC = settings: cited from earlier work
[1] = test system: αP197fs (co-expressed with βγ-ENaC); test: Whole-cell patch clamp, αP197fs + WT βγ; format: cell-based, human; settings: read-out: EC50, solnatide, HEK-293, whole-cell, -100 mV, n = 5, p < 0.001 vs WT
Procedure: (§1) Point mutations of α-, β-, γ- and δ-hENaC and PHA1B frameshift mutations of α-hENaC were prepared with the QuikChange Lightning Site-Directed Mutagenesis Kit (Agilent Technologies, CA, USA). Mutagenic primers were designed individually with the Primer Design Program provided on the producer’s website or for the frameshift mutations the same base changes as reported in patients (see Table 2) were performed. Primers were ordered from Sigma-Aldrich, Vienna, Austria.
(§2) HEK-293 cells were transfected 1 day after cell seeding using X-tremeGENE HP DNA transfection reagent (Roche Diagnostics, Mannheim, Germany) according to the manufacturer’s protocol. A set of WT or mutant αβγ- or δβγ-hENaC, or α-, β-, γ-, or δ-hENaC alone was used, and the ratio of DNA to transfection reagent was 1:3. The expression was highest 48–72 h after transfection.
(§3) Electrophysiological experiments were performed as described in detail by Shabbir et al. ([16]). […] Currents were recorded with the patch clamp method in the whole-cell mode. The chamber contained 1 ml of the bath solution of the following composition (in mM): 145 NaCl, 2.7 KCl, 1.8 CaCl2, 2 MgCl2, 5.5 glucose, and 10 HEPES, adjusted to pH 7.4 with 1 M NaOH solution. Micropipettes were pulled from thin-walled borosilicate glass capillaries (Harvard Apparatus, Holliston, MA, USA) with a DMZ Zeitz Puller to obtain electrode resistances ranging from 2 to 5 MΩ. […]

βγ-ENaC = test: Whole-cell patch clamp, WT βγ-ENaC; format: cell-based, human; settings: HEK-293, 200 nM solnatide, n = 3
Procedure: as §2
as §3, with “MΩ. The pipette solution contained (in millimolars): 135 potassium methane sulfonate, 10 KCl, 6 NaCl, 1 Mg2ATP, 2 Na3ATP, 10 HEPES, and 0.5 EGTA, adjusted to pH 7.2 with 1 M KOH solution. Chemicals for pipette and bathing solutions were supplied by Sigma-Aldrich (Vienna, Austria). Electrophysiological measurements were carried out with an Axopatch 200B patch clamp amplifier (Axon Instruments, CA, USA).” for “MΩ.”

[2] = test system: αE272fs (co-expressed with βγ-ENaC); test: Whole-cell patch clamp, αE272fs + WT βγ; format: cell-based, human; settings: read-out: EC50, solnatide, HEK-293, whole-cell, -100 mV, n = 5, p < 0.001 vs WT
Procedure: as §1, §2, §3

αR448fs = test: Membrane abundance of αR448fs; format: cell-based, human; settings: n = 4
Procedure: Cell surface biotinylation was performed as previously described ([26]). In brief, A549 cells or transiently transfected HEK-293 cells were grown in 10 cm dishes in 37°C, 5% CO2 incubator in DMEM medium supplemented with 5% FBS. […] Medium was aspirated, and then cells were washed twice with 10 ml ice-cold phosphate-buffered saline (PBS), covered with 2.5 mg EZ-Link Sulfo-NHS-SS-Biotin (Thermo Scientific, Rockford, USA), dissolved in 10 ml ice-cold PBS, and incubated at 4°C with gentle agitation for 30 min. Fifty milliliters of quenching solution were added to cells; then cells were scraped in solution and transferred to fresh 50 ml tube. Cell suspension was centrifuged at 500 × g for 3 min. Supernatant was discarded, and 5 ml of Tris-buffered saline (TBS) was added to the cell pellet. The cell pellet was resuspended and centrifuged at 500 × g for 3 min. Supernatant was discarded and cell pellet was resuspended in lysis buffer containing protease inhibitor cocktail (10 µM pepstatin A, 10 µM phenylmethylsulfonyl fluoride, and 10 µM leupeptin) and transferred to fresh 1.5 ml centrifuge tube. Cell pellet was then homogenized on ice by ultrasonication using 1 s bursts and incubated on ice for at least 30 min. Intact cells and nuclei were pelleted by centrifugation at 10,000 × g for 2 min under cooling conditions. Pellet was then discarded and supernatant was transferred to fresh tube, incubated overnight with 0.5 ml NeutrAvidin Agarose under gentle rotation at 4°C and centrifuged at 500 × g for 5 min under cooling conditions. Supernatant was then discarded and the pellet washed twice with 200 µl lysis buffer. The biotinylated proteins were eluted with 100 µl sodium dodecyl sulfate (SDS) sample buffer (62.5 mM Tris, pH 6.8, 1% SDS, 10% glycerine, 50 mM dithiothreitol) containing 10 µM E64 at 65°C for 10 min. Sample was then centrifuged at 500 × g for 2 min. Pellet was discarded and supernatant subjected to protein electrophoresis and immunoblotting. The biotinylated proteins were separated under reducing conditions by SDS-PAGE using 7.5% SDS gel along with prestained protein marker (cat. #12949 from Cell Signaling). Proteins were then transferred onto a nitrocellulose membrane (UltraCruzTM […], Santa Cruz Biotechnology, TX, USA) by semi-dry blotting at 25 V for 30 min. Unspecific binding sites were blocked by incubating the membrane overnight at 4°C with 3% FBS in PBS supplemented with 0.02% sodium azide. Membrane was then incubated for 90 min with primary antibody (anti-α-hENaC, anti-δ-hENaC, and anti-β-actin from Sigma Aldrich; anti-β- and anti-γ-hENaC from Santa Cruz Biotechnology). […] Exposed films were scanned and quantified using ImageJ (NIH, MD, USA). […]

C[C@@H]1NC(=O)CNC(=O)[C@H](CCC(=O)O)NC(=O)[C@@H]2CCCN2C(=O)[C@H]([C@@H](C)O)NC(=O)[C@H](CCC(=O)O)NC(=O)[C@H](CCCNC(=N)N)NC(=O)[C@H](CCC(N)=O)NC(=O)CNC(=O)[C@@H](N)CSSC[C@@H](C(=O)O)NC(=O)[C@H](Cc2ccc(O)cc2)NC(=O)[C@H](Cc2c[nH]c3ccccc23)NC(=O)[C@@H]2CCCN2C(=O)[C@H](CCCCN)NC(=O)[C@H](C)NC(=O)[C@H](CCC(=O)O)NC1=O [solnatide, L-cysteine, L-cysteinylglycyl-L-glutaminyl-L-arginyl-L-α-glutamyl-L-threonyl-L-prolyl-L-α-glutamylglycyl-L-alanyl-L-α-glutamyl-L-alanyl-L-lysyl-L-prolyl-L-tryptophyl-L-tyrosyl-, cyclic (1→17)-disulfide]
Effect of solnatide on amiloride-sensitive current (αL576Xβγ-ENaC): a residual albeit non-significant increase in the amiloride-sensitive current | Current increase, glycosylation sites removed (αL576Xβγ-ENaC; glycosylation sites in extracellular loop removed by mutation): small increase was not seen | EC50 [1]: 84 ± 4.9 nM | Effect of solnatide on current (words) (βγ-ENaC): small current increase in WT βγ-ENaC; also recorded: can activate βγ-ENaC marginally | EC50 [2]: 75.6 ± 5.4 nM | Membrane abundance (αR448fs; glycosylated αR448fs, 200 nM solnatide, 5 min): highly increased after 5 min of solnatide treatment | Increase in membrane abundance after PNGase F (αR448fs; αR448fs, 200 nM solnatide, 100 units PNGase F): completely abolished in deglycosylated mutants; also recorded: after PNGase F treatment no differences can be observed | Membrane abundance, solnatide 5 min (αR448fs; αR448fs, 200 nM, 5 min, relative to WT control (=1), own control 1.32 ± 0.10, p < 0.001 vs control): 5.88 ± 0.32*** | Membrane abundance, solnatide 10 min (αR448fs; αR448fs, 200 nM, 10 min, relative to WT control (=1), own control 1.32 ± 0.10): 1.30 ± 0.12
